Patent US10167262B2, “Herbicidal substituted 3-arylpyrazoles” (FMC CORPORATION, priority 2014, dated 2019)
Like-named read-outs stand apart in the source and are kept apart here.

Tests used:
Experiment in all cases: Test C pre-/postemergence greenhouse test, plant response rating 0-100
Type in all cases: in vivo
[1] = test system: Italian ryegrass (Lolium multiflorum); conditions: Lolium multiflorum; for pest or weed control at 62 g/ha: 62 g ai/ha; for pest or weed control at 125 g/ha: 125 g ai/ha; for pest or weed control at 250 g/ha: 250 g ai/ha; for pest or weed control at 500 g/ha: 500 g ai/ha
Method in brief: (§1)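 Pre-emergence soil and post-emergence foliar sprays were applied simultaneously to seeded loam–sand pots and to 1–4-leaf plants in peat medium; greenhouse holding lasted 13–15 days, then plants were scored visually from 0 (no effect) to 100 (complete control).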

[2] = test system: galium (catchweed bedstraw, Galium aparine); conditions: Galium; for pest or weed control at 62 g/ha: 62 g ai/ha; for pest or weed control at 125 g/ha: 125 g ai/ha; for pest or weed control at 250 g/ha: 250 g ai/ha; for pest or weed control at 500 g/ha: 500 g ai/ha
Method in brief: as §1

[3] = test system: morningglory (Ipomoea coccinea); conditions: Ipomoea; for pest or weed control at 62 g/ha: 62 g ai/ha; for pest or weed control at 125 g/ha: 125 g ai/ha; for pest or weed control at 250 g/ha: 250 g ai/ha; for pest or weed control at 500 g/ha: 500 g ai/ha
Method in brief: as §1

[4] = test system: pigweed (Amaranthus retroflexus); conditions: Amaranthus retroflexus; for pest or weed control at 62 g/ha: 62 g ai/ha; for pest or weed control at 125 g/ha: 125 g ai/ha; for pest or weed control at 250 g/ha: 250 g ai/ha; for pest or weed control at 500 g/ha: 500 g ai/ha
Method in brief: as §1

[5] = test system: johnsongrass (Sorghum halepense); conditions: Sorghum halepense; for pest or weed control at 62 g/ha: 62 g ai/ha; for pest or weed control at 125 g/ha: 125 g ai/ha; for pest or weed control at 250 g/ha: 250 g ai/ha; for pest or weed control at 500 g/ha: 500 g ai/ha
Method in brief: as §1

[6] = test system: lambsquarters (Chenopodium album); conditions: Chenopodium album; for pest or weed control at 62 g/ha: 62 g ai/ha; for pest or weed control at 125 g/ha: 125 g ai/ha; for pest or weed control at 250 g/ha: 250 g ai/ha; for pest or weed control at 500 g/ha: 500 g ai/ha
Method in brief: as §1

[7] = test system: giant foxtail (Setaria faberii); conditions: Setaria faberi; for pest or weed control at 62 g/ha: 62 g ai/ha; for pest or weed control at 125 g/ha: 125 g ai/ha; for pest or weed control at 250 g/ha: 250 g ai/ha; for pest or weed control at 500 g/ha: 500 g ai/ha
Method in brief: as §1

corn (Zea mays) = conditions: Zea mays; for Corn plant response rating (crop injury, 0 = no effect, 100 = complete kill) at 250 g/ha: 250 g ai/ha; for Corn plant response rating (crop injury, 0 = no effect, 100 = complete kill) at 500 g/ha: 500 g ai/ha
Method in brief: as §1

[8] = test system: velvetleaf (Abutilon theophrasti); conditions: Abutilon theophrasti; for pest or weed control at 62 g/ha: 62 g ai/ha; for pest or weed control at 125 g/ha: 125 g ai/ha; for pest or weed control at 250 g/ha: 250 g ai/ha; for pest or weed control at 500 g/ha: 500 g ai/ha
Method in brief: as §1

soybean (Glycine max) = conditions: Glycine max; for plant injury at 62 g/ha: 62 g ai/ha; for plant injury at 125 g/ha: 125 g ai/ha; for plant injury at 250 g/ha: 250 g ai/ha; for plant injury at 500 g/ha: 500 g ai/ha
Method in brief: as §1

[9] = test system: large (Lg) crabgrass (Digitaria sanguinalis); conditions: Digitaria sanguinalis; for pest or weed control at 62 g/ha: 62 g ai/ha; for pest or weed control at 125 g/ha: 125 g ai/ha; for pest or weed control at 250 g/ha: 250 g ai/ha; for pest or weed control at 500 g/ha: 500 g ai/ha
Method in brief: as §1

[10] = test system: winter wheat (Triticum aestivum); conditions: Triticum aestivum; for plant injury at 62 g/ha: 62 g ai/ha; for plant injury at 125 g/ha: 125 g ai/ha; for plant injury at 250 g/ha: 250 g ai/ha; for plant injury at 500 g/ha: 500 g ai/ha
Method in brief: as §1

[11] = test system: yellow nutsedge (Cyperus esculentus); conditions: Cyperus; for pest or weed control at 62 g/ha: 62 g ai/ha; for pest or weed control at 125 g/ha: 125 g ai/ha; for pest or weed control at 250 g/ha: 250 g ai/ha; for pest or weed control at 500 g/ha: 500 g ai/ha
Method in brief: as §1

[12] = post-emergence, Postemergence, read-out: Plant response rating (0 to 100), Ryegrass, Italian
[13] = post-emergence, Postemergence, scale 0 to 100
[14] = pre-emergence, Preemergence, read-out: Plant response rating, Ryegrass, Italian
[15] = post-emergence, Postemergence, read-out: Plant response rating (0 to 100), Galium
[16] = pre-emergence, Preemergence, read-out: Plant response rating, Galium
[17] = post-emergence, Postemergence, read-out: Plant response rating (0 to 100), Morningglory
[18] = pre-emergence, Preemergence, read-out: Plant response rating, Morningglory
[19] = post-emergence, Postemergence, read-out: Plant response rating (0 to 100), Pigweed
[20] = pre-emergence, Preemergence, read-out: Plant response rating, Pigweed
[21] = post-emergence, Postemergence, read-out: Plant response rating (0 to 100), Johnsongrass
[22] = pre-emergence, Preemergence, read-out: Plant response rating, Johnsongrass
[23] = post-emergence, Postemergence, read-out: Plant response rating (0 to 100), Lambsquarters
[24] = pre-emergence, Preemergence, read-out: Plant response rating, Lambsquarters
[25] = post-emergence, Postemergence, read-out: Plant response rating (0 to 100), Foxtail, Giant
[26] = pre-emergence, Preemergence, read-out: Plant response rating, Foxtail, Giant
[27] = post-emergence, Postemergence, read-out: Plant response rating (0 to 100), Velvetleaf
[28] = pre-emergence, Preemergence, read-out: Plant response rating, Velvetleaf
[29] = post-emergence, Postemergence, read-out: Plant response rating (0 to 100), Soybean
[30] = pre-emergence, Preemergence, read-out: Plant response rating, Soybean
[31] = post-emergence, Postemergence, read-out: Plant response rating (0 to 100), Crabgrass, Large
[32] = pre-emergence, Preemergence, read-out: Plant response rating, Crabgrass, Large
[33] = post-emergence, Postemergence, read-out: Plant response rating (0 to 100), Wheat
[34] = pre-emergence, Preemergence, read-out: Plant response rating, Wheat
[35] = post-emergence, Postemergence, read-out: Plant response rating (0 to 100), Nutsedge, Yellow
[36] = pre-emergence, Preemergence, read-out: Plant response rating, Nutsedge, Yellow

COCC(=O)n1cc(C(=O)c2ccccc2)c(-c2cc(Cl)cc(Cl)c2)n1 [Compound 16, 1-[4-benzoyl-3-(3,5-dichlorophenyl)-1H-pyrazol-1-yl]-2-methoxyethanone]
5%: pest or weed control at 500 g/ha [11, 13]
50%: pest or weed control at 500 g/ha [2, 13]
20%: pest or weed control at 125 g/ha [2, 15] | pest or weed control at 250 g/ha [2, 13]
0%: pest or weed control at 62 g/ha [1, 12] | pest or weed control at 125 g/ha [1, 12] | pest or weed control at 250 g/ha [1, 13] | pest or weed control at 500 g/ha [1, 13] | pest or weed control at 62 g/ha [1, 14] | pest or weed control at 125 g/ha [1, 14] | pest or weed control at 250 g/ha ([1]; pre-emergence, Preemergence) | pest or weed control at 500 g/ha ([1]; pre-emergence, Preemergence) | pest or weed control at 62 g/ha [2, 15] | pest or weed control at 62 g/ha [2, 16] | pest or weed control at 125 g/ha [2, 16] | pest or weed control at 250 g/ha ([2]; pre-emergence, Preemergence) | pest or weed control at 500 g/ha ([2]; pre-emergence, Preemergence) | pest or weed control at 62 g/ha [3, 17] | pest or weed control at 125 g/ha [3, 17] | pest or weed control at 250 g/ha [3, 13] | pest or weed control at 500 g/ha [3, 13] | pest or weed control at 62 g/ha [3, 18] | pest or weed control at 125 g/ha [3, 18] | pest or weed control at 250 g/ha ([3]; pre-emergence, Preemergence) | pest or weed control at 500 g/ha ([3]; pre-emergence, Preemergence) | pest or weed control at 62 g/ha [5, 21] | pest or weed control at 125 g/ha [5, 21] | pest or weed control at 250 g/ha [5, 13] | pest or weed control at 500 g/ha [5, 13] | pest or weed control at 62 g/ha [5, 22] | pest or weed control at 125 g/ha [5, 22] | pest or weed control at 250 g/ha ([5]; pre-emergence, Preemergence) | pest or weed control at 500 g/ha ([5]; pre-emergence, Preemergence) | pest or weed control at 62 g/ha [7, 25] | pest or weed control at 125 g/ha [7, 25] | pest or weed control at 250 g/ha [7, 13] | pest or weed control at 62 g/ha [7, 26] | pest or weed control at 125 g/ha [7, 26] | pest or weed control at 250 g/ha ([7]; pre-emergence, Preemergence) | pest or weed control at 500 g/ha ([7]; pre-emergence, Preemergence) | plant injury at 62 g/ha (corn (Zea mays); post-emergence, Postemergence, 62 g ai/ha) | plant injury at 125 g/ha (corn (Zea mays); post-emergence, Postemergence, 125 g ai/ha) | Corn plant response rating (crop injury, 0 = no effect, 100 = complete kill) at 250 g/ha (corn (Zea mays); [13]) | Corn plant response rating (crop injury, 0 = no effect, 100 = complete kill) at 500 g/ha (corn (Zea mays); [13]) | Corn plant response rating (crop injury, 0 = no effect, 100 = complete kill) at 62 g/ha (corn (Zea mays); pre-emergence, Preemergence, 62 g ai/ha) | Corn plant response rating (crop injury, 0 = no effect, 100 = complete kill) at 125 g/ha (corn (Zea mays); pre-emergence, Preemergence, 125 g ai/ha) | Corn plant response rating (crop injury, 0 = no effect, 100 = complete kill) at 250 g/ha (corn (Zea mays); pre-emergence, Preemergence) | Corn plant response rating (crop injury, 0 = no effect, 100 = complete kill) at 500 g/ha (corn (Zea mays); pre-emergence, Preemergence) | plant injury at 62 g/ha (soybean (Glycine max); [29]) | plant injury at 125 g/ha (soybean (Glycine max); [29]) | plant injury at 250 g/ha (soybean (Glycine max); [13]) | plant injury at 500 g/ha (soybean (Glycine max); [13]) | plant injury at 62 g/ha (soybean (Glycine max); [30]) | plant injury at 125 g/ha (soybean (Glycine max); [30]) | plant injury at 250 g/ha (soybean (Glycine max); pre-emergence, Preemergence) | plant injury at 500 g/ha (soybean (Glycine max); pre-emergence, Preemergence) | pest or weed control at 62 g/ha [9, 31] | pest or weed control at 125 g/ha [9, 31] | pest or weed control at 250 g/ha [9, 13] | pest or weed control at 500 g/ha [9, 13] | pest or weed control at 62 g/ha [9, 32] | pest or weed control at 125 g/ha [9, 32] | pest or weed control at 250 g/ha ([9]; pre-emergence, Preemergence) | pest or weed control at 500 g/ha ([9]; pre-emergence, Preemergence) | plant injury at 62 g/ha [10, 33] | plant injury at 125 g/ha [10, 33] | plant injury at 250 g/ha [10, 13] | plant injury at 500 g/ha [10, 13] | plant injury at 62 g/ha [10, 34] | plant injury at 125 g/ha [10, 34] | plant injury at 250 g/ha ([10]; pre-emergence, Preemergence) | plant injury at 500 g/ha ([10]; pre-emergence, Preemergence) | pest or weed control at 62 g/ha [11, 35] | pest or weed control at 125 g/ha [11, 35] | pest or weed control at 250 g/ha [11, 13] | pest or weed control at 62 g/ha [11, 36] | pest or weed control at 125 g/ha [11, 36] | pest or weed control at 250 g/ha ([11]; pre-emergence, Preemergence) | pest or weed control at 500 g/ha ([11]; pre-emergence, Preemergence)
65%: pest or weed control at 62 g/ha [8, 28]
75%: pest or weed control at 125 g/ha [6, 23] | pest or weed control at 250 g/ha [6, 13] | pest or weed control at 500 g/ha [6, 13]
85%: pest or weed control at 62 g/ha [4, 19] | pest or weed control at 125 g/ha [4, 19] | pest or weed control at 62 g/ha [4, 20] | pest or weed control at 125 g/ha [4, 20] | pest or weed control at 62 g/ha [8, 27]
70%: pest or weed control at 62 g/ha [6, 23]
90%: pest or weed control at 125 g/ha [8, 27] | pest or weed control at 250 g/ha [8, 13] | pest or weed control at 500 g/ha [8, 13]
100%: pest or weed control at 250 g/ha [4, 13] | pest or weed control at 500 g/ha [4, 13] | pest or weed control at 250 g/ha ([4]; pre-emergence, Preemergence) | pest or weed control at 500 g/ha ([4]; pre-emergence, Preemergence) | pest or weed control at 62 g/ha [6, 24] | pest or weed control at 125 g/ha [6, 24] | pest or weed control at 250 g/ha ([6]; pre-emergence, Preemergence) | pest or weed control at 500 g/ha ([6]; pre-emergence, Preemergence) | pest or weed control at 125 g/ha [8, 28] | pest or weed control at 250 g/ha ([8]; pre-emergence, Preemergence) | pest or weed control at 500 g/ha ([8]; pre-emergence, Preemergence)
10%: pest or weed control at 500 g/ha [7, 13]
